Results reported in US5101027A, “Synthesis of mannojirimycin derivatives” (Monsanto Company, priority 1990, dated 1992).

How the values were obtained:
α-glucosidase = settings: literature; cited from earlier work
human liver α-fucosidase = settings: literature; compared with deoxyfuconojirimycin (4); cited from earlier work
α-mannosidases = settings: literature; cited from earlier work
human α-mannosidases = test: inhibition of human liver α-mannosidases (summary of lysosomal, Golgi II and neutral); type: biochemical; settings: for specificity and potency of inhibition of human α-mannosidases, HMJ compared with DMJ: HMJ (6) vs DMJ (5)
Source text: (§1) The relative potencies of these compounds as fucosidase inhibitors may be understood by considering them as analogues of α-L-fucose; all three compounds have the correct chirality of the secondary hydroxyl groups--the minimum requirement for inhibition of α-fucosidase. […] All the compounds are weaker inhibitors of α-fucosidase than is deoxyfuconojirimycin, since they all lack a lipophilic methyl substituent with correct configuration.

α-Fucosidase = target: T1, α-Fucosidase (Homo sapiens, UniProt P04066); test: % inhibition of human liver α-fucosidase catalysed hydrolysis; type: biochemical
T1 construct: from tissue; host or cells: human liver
T1 sequence (P04066 32-466): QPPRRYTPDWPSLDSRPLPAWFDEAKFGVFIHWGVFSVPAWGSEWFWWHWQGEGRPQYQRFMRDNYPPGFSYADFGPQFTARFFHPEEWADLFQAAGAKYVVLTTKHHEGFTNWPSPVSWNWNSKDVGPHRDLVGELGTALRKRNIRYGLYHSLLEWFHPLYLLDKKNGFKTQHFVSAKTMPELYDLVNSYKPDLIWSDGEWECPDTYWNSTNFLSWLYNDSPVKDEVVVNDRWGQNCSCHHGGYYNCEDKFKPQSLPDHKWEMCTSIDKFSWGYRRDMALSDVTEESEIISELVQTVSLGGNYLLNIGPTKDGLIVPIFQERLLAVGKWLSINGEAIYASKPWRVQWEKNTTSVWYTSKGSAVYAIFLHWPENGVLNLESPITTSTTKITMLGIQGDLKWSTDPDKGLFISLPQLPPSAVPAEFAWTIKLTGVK
Experimental: % Inhibition of human liver α-fucosidase and α-mannosidase
catalysed hydrolysis of 4-umbelliferyl pyrranosides at
1 mM concentration of inhibitor

β-mannosidase = test: inhibition of human liver β-mannosidase; type: biochemical
Source text: as §1

SMILES	specificity and potency of inhibition of human α-mannosidases, HMJ compared with DMJ (human α-mannosidases)	inhibition of α-fucosidase (in words) (α-Fucosidase)	inhibition of β-mannosidase (in words) (β-mannosidase)	further results
OC[C@H]1N[C@H](CO[C@@H]2O[C@H](CO)[C@@H](O)[C@H](O)[C@H]2O)[C@H](O)[C@@H](O)[C@@H]1O [β-glucopyranosyl derivative (2)]				α-glucosidase inhibition (in words) (α-glucosidase): powerful α-glucosidase inhibitor
C[C@@H]1N[C@H](CO)[C@@H](O)[C@H](O)[C@@H]1O [homofuconojirimycin (3), homofuconojirimycin]				inhibition of human liver α-fucosidase relative to deoxyfuconojirimycin (4) (human liver α-fucosidase): as powerful an inhibitor of human liver α-fucosidase as is deoxyfuconojirimycin (4)
OC[C@H]1NC[C@@H](O)[C@@H](O)[C@@H]1O [Deoxymannojirimycin (5), Deoxymannojirimycin]	very similar	powerful inhibitors of α-fucosidase	Neither compound inhibited β-mannosidase	inhibition of α-mannosidases in general (in words) (α-mannosidases): relatively weak inhibitor of α-mannosidases in general
OC[C@@H]1N[C@H](CO)[C@@H](O)[C@@H](O)[C@@H]1O [6-Epi-homomannojirimycin (8), 2,6-dideoxy-2,6-imino-L-glycero-D-talo-heptitol]		powerful inhibitors of α-fucosidase		inhibition of α-mannosidases (in words) (human α-mannosidases): did not inhibit any α-mannosidase
OC[C@H]1N[C@H](CO)[C@@H](O)C(O)[C@@H]1O (stereo partly drawn) [Homomannojirimycin (6), 2,6-dideoxy-2,6-imino-D-glycero-D-talo-heptitol]	very similar	only a weak inhibitor of this enzyme	Neither compound inhibited β-mannosidase	
